The subject of data set [1] is patients with schizophrenia. The note with it: phase Ib; cited from earlier work.
In a further data set the target is T1, human M4 receptor (Homo sapiens, UniProt P08173).
T1 construct: expressed in transfected cells
T1 sequence (P08173 1-479): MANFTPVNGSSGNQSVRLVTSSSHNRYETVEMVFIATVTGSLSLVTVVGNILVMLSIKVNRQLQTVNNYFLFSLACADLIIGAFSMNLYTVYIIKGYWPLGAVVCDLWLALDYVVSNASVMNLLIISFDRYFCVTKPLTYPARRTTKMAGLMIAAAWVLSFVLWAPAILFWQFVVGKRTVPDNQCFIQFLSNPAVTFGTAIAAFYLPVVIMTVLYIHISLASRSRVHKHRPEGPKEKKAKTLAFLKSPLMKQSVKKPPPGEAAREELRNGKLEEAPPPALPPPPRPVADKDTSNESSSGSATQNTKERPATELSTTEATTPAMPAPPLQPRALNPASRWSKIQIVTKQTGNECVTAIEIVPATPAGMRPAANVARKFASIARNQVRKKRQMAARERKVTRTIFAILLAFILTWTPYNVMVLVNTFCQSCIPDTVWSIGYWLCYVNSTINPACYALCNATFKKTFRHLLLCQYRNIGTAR
The data set can be described thus: PAM activity on M4 receptor, FLIPR CALCIUM 6 assay in M4-Gα15-CHO cells with acetylcholine. The note with it: PAM mode with acetylcholine agonist, FLIPR calcium signal. The format is cell-based. Here is the method:
The activity of compounds on M4 receptor was determined by FLIPR CALCIUM 6 ASSAY KIT using a stable transfected cell line expressing human M4 receptor (M4-Gα15-CHO).
1. This study uses a CHO cell line stably expressing M4-Gα15 receptor, which expresses human CHRM4 and GNA15 genes, respectively.
2. Cell treatment: M4-Gα15-CHO cells were cultured in F-12 medium containing 10% fetal bovine serum, 0.4 mg/mL hygromycin B, and 0.8 mg/mL geneticin G418, with a culture temperature of 37° C. and a CO2 concentration of 5%. The old media was removed and the cells were washed once with phosphate buffered saline. 1 mL of trypsin solution was then added, and the mixture was incubated at 37° C. for approximately 2 minutes. After the cells were detached from the dish, approximately 5 mL of complete media pre-warmed at 37° C. was added. The cell suspension was gently pipetted to separate the aggregated cells. The cell suspension was transferred to a sterile centrifuge tube and centrifuged at 1000 rpm for 5 minutes.
1. Cell plating: M4-Gα15-CHO cells were digested and collected, then resuspended and counted, and seeded into a 384-well cell plate at a density of 1.2×10^4 cells/25 μL/well. The cell plate was then incubated in a 5% CO2 incubator at 37° C. for approximately 20 hours.
2. Preparation of loading buffer according to the instructions of FLIPR CALCIUM 6 ASSAY KIT after 24 hours: Component A was freeze-thawed to room temperature, and diluted with assay buffer and probenecid solution to obtain a loading buffer, which was kept at room temperature for later use.
3. The medium was removed from the cell plate, and 35 µL of loading buffer was quickly added to each well. After centrifugation, the cell plate was incubated at 37° C. in the dark for 120 minutes.
4. A working solution of the compound to be tested was prepared, 5 μL of which was transferred to the corresponding cell wells, and incubated at 37° C. in the dark for 30 minutes.
5. 30 nM acetylcholine agonist working solution was prepared and transferred to a 384-well loading plate at 20 μL/well.
6. The cell plate, the loading plate, and the pipette tip were placed at the corresponding positions of the FLIPR instrument. 10 μL of the agonist diluted in step 5 was added to the experimental wells using FLIPR, and data were collected at a wavelength of 515 nm to 575 nm.
7. The signal value was plotted against compound concentration. Curve fitting and EC50 calculation were performed by nonlinear regression method using GraphPad Prism software.
1. 0.5 mol/L 2-(4-(2-hydroxyethyl)piperazine)ethanesulfonic acid buffer was mixed with Hanks' balanced salt solution (pH 7.4) at a volume ratio of 1:24 to prepare an assay buffer. 10 mL of assay buffer was added to a vial of CALCIUM 6 ASSAY KIT Component A in the form of lyophilized powder, and aliquoted and stored at −20° C.
2. Probenecid powder was dissolved in 1 mol/L sodium hydroxide solution to a final concentration of […]. The assay buffer, freeze-thawed Component A, and probenecid solution were mixed at a volume ratio of 44:5:1 to prepare a loading buffer.

A short description of data set [2]: Pharmacokinetic properties in vivo in mice (iv and oral). The note with it: mouse, plasma, CD-1 mice, oral 2.0 mg/kg; for bioavailability / clearance / Vd / Cmax: iv 1.0 mg/kg; for bioavailability: read-out: Bioavailability F; for clearance: read-out: Clearance CL; for Vd: read-out: Volume of distribution at steady state Vdss; for AUC(0-t): read-out: Area under the curve AUC0-last, po; for half-life: read-out: Half-life T1/2, po (converted); for Cmax: read-out: Peak concentration Cmax. As to the method:
The compounds obtained in the examples of the present disclosure were evaluated for their pharmacokinetic properties in vivo in CD-1 mice.
The compounds were tested for their pharmacokinetic characteristics in rodents after intravenous injection and oral administration following standard protocols. In the experiment, the candidate compound was prepared into a clear solution or suspension with a specified vehicle, and administered to three mice via single-dose intravenous injection and oral administration, respectively. The vehicle for both intravenous injection and oral administration was 5% dimethyl sulfoxide+95% (10% polyethylene glycol (15)-hydroxystearate in water). Whole blood samples within 24 hours were collected into a commercial EDTA2K anticoagulant tube, followed by centrifugation to obtain the upper plasma sample, and acetonitrile solution containing internal standard was added to precipitate proteins. After centrifugation, the supernatant was mixed with an equal volume of water, and after another centrifugation, the supernatant was taken for injection. Plasma concentration was quantitatively analyzed using LCMS/MS analysis method, and pharmacokinetic parameters were calculated.

The next data set concerns mice. Conditions: genetic mouse model of schizophrenia; cited from earlier work.
The subject of the next data set is patients. Conditions: cited from earlier work.

A word on the EC50: it is the concentration giving half of the maximal effect. The bioavailability is the share of a dose that reaches the circulation, judged against a reference dose that is usually intravenous.

`Cc1cc(C)c2c(n1)CN(C(=O)CC1CN(c3ccnc(C(F)(F)F)c3)C1)C2` [CVL-231]: the PANSS total score entry in data set [1] is given as “significantly reduce”.

Consider `Cc1nnc(N2CCC2)c2c1CN(C(=O)CC1CN(c3ccnc(C(F)(F)F)c3)C1)C2` [Example 12], for which the EC50 on human M4 receptor was found to be 0.35 µM. In addition, in data set [2], the bioavailability came out at 86.6%, the clearance was 17.1 mL/min/kg, the Vd came out at 2.3 L/kg and the AUC(0-t) was 1690 ng·h/mL. For the same molecule, in data set [2], the half-life is 1.13 h and the Cmax is 614 ng/mL.

Take `Cc1nnc(C)c2c1CN(C(=O)CC1CN(c3ccnc(C(F)(F)F)c3)C1)C2` [Example 24]: the EC50 at human M4 receptor came out at 0.387 µM.

As to `Cc1nnc(N2CCC2)c2c1CN(C(=O)CC1CN(c3ccnc(OCC(F)(F)F)c3)C1)C2` [Example 47], the EC50 on human M4 receptor amounted to 0.25 µM.

On to `Cc1nsc(N2CC(CC(=O)N3Cc4c(C)nnc(N5CCC5)c4C3)C2)n1` [Example 50], for which the EC50 on human M4 receptor was determined as 1.78 µM.

Consider `Cc1nnc(N2CCC2)c2c1CN(C(=O)CC1CN(c3ccnc(C(F)(F)F)c3)C1C)C2` (stereo not drawn) [Example 51], for which the EC50 at human M4 receptor worked out at 1.37 µM.

`Cc1nnc(C)c2c1CN(C(=O)CC1CN(c3ccnc(OCC(F)(F)F)c3)C1)C2` [Example 67]: the EC50 on human M4 receptor was 0.39 µM. In data set [2], the bioavailability was found to be 82.7%, the clearance amounted to 3.32 mL/min/kg, the Vd came out at 1.53 L/kg and the AUC(0-t) turned out to be 8040 ng·h/mL. In data set [2], the half-life was 4.78 h and the Cmax worked out at 827 ng/mL.

On to `Cc1nnc(C)c2c1CN(C(=O)CC1CN(c3ccnc(SC(F)(F)F)c3)C1)C2` [Example 68], for which the EC50 on human M4 receptor was 0.48 µM.

With `Cc1nnc(C)c2c1CN(C(=O)CC1CN(c3ccnc(O[C@H](C)C(F)(F)F)c3)C1)C2` [Example 89], on human M4 receptor, the concentration giving a half-maximal response (EC50) worked out at 0.29 µM. Moreover, in data set [2], the bioavailability is 80.6%, the clearance turned out to be 7.65 mL/min/kg, the Vd came to 3.72 L/kg and the AUC(0-t) was 3470 ng·h/mL. Moreover, in data set [2], the half-life is 4.65 h and the Cmax came to 345 ng/mL.

Turning to `Cc1nnc(C2CC2)c2c1CN(C(=O)CC1CN(c3ccnc(OCC(F)(F)F)c3)C1)C2` [Example 98], at human M4 receptor, the EC50 is 1.13 µM.

Regarding `CCc1nnc(C)c2c1CN(C(=O)CC1CN(c3ccnc(OCC(F)(F)F)c3)C1)C2` [Example 110], the half-maximal effective concentration (EC50) on human M4 receptor was found to be 0.9 µM.

As to `Cc1nnc(C)c2c1CN(C(=O)CC1CN(c3ccnc(O[C@@H](C)C(F)(F)F)c3)C1)C2` [Example 116], the EC50 at human M4 receptor stood at 0.58 µM.

With `Cc1c(Cc2ccc(-n3cccn3)cc2)cc2c(c1F)CN([C@H]1COCC[C@@H]1O)C2=O` [TAK-071], the “deficits in memory cognition, social competence, and sensory-motor gating” value with mice was “significantly ameliorates”.

On to `CCCCCCOc1nsnc1C1=CCCN(C)C1` [Xanomeline], for which the “toxic and side effects” value with patients (peripheral nervous system and digestive tract) is “serious toxic and side effects”. Besides, the “cognitive function of patients” value with patients (phase II clinical trial, Alzheimer's disease) was “improvement in the cognitive function”.

These data come from patent US20260109700A1, “NITROGEN-CONTAINING HETEROCYCLIC COMPOUNDS AND PHARMACEUTICALLY ACCEPTABLE SALTS THEREOF, PREPARATION METHOD THEREFOR, AND THE USE THEREOF” (NEUSHEN THERAPEUTICS (SHANGHAI) CO., LTD, priority 2022, published 2026).
